According to ChEMBL document CHEMBL1134256, “Anticancer activity of synthetic analogues of the phorboxazoles” (Bioorg Med Chem Lett, 2001):

Columns and labels:
NALM-6 [1] = assay: In vitro anticlonogenic effect on human B-lineage acute lymphoblastic leukemia cell line NALM-6 at 1 nM concentration; format: functional
NALM-6 [2] = assay: In vitro anticlonogenic effect on human B-lineage acute lymphoblastic leukemia cell line NALM-6 at 100 nM concentration; format: functional
NALM-6 [3] = assay: Effect on proliferation of human B-lineage acute lymphoblastic leukemia cell line NALM-6 by MTT assay method; format: functional, cell-based
BT-20 [4] = assay: In vitro anticlonogenic effect on human breast cancer cell line BT-20 100 nM concentration; format: functional
BT-20 [5] = assay: In vitro anticlonogenic effect on human breast cancer cell line BT-20 10 nM concentration; format: functional
BT-20 [6] = assay: In vitro anticlonogenic effect on human breast cancer cell line BT-20 1 nM concentration; format: functional
BT-20 [7] = assay: Effect on proliferation of human breast cancer cell line BT-20 by MTT assay method; format: functional, cell-based
Candida albicans [8] = assay: In vitro growth inhibitory concentration against Candida albicans; format: functional
[9] = system: Saccharomyces pastorianus; assay: In vitro growth inhibitory concentration against Saccharomyces carlsbergensis; format: functional
U373 MG [10] = assay: In vitro anticlonogenic effect on human brain tumor (glioblastoma) cell line U373 10 nM concentration e; format: functional, U-373MG ATCC
U373 MG [11] = assay: In vitro anticlonogenic effect on human brain tumor (glioblastoma) cell line U373 100 nM concentration; format: functional, U-373MG ATCC
NALM-6 [12] = assay: In vitro anticlonogenic effect on human B-lineage acute lymphoblastic leukemia cell line NALM-6 at 10 nM concentration; format: functional
U373 MG [13] = assay: Effect on proliferation of human brain tumor (glioblastoma) cell line U373 by MTT assay method; format: functional, cell-based, U-373MG ATCC
[14] = system: Saccharomyces pastorianus; assay: In vitro growth inhibitory concentration for antifungal activity against Saccharomyces carlsbergensis; format: functional
Candida albicans [15] = assay: In vitro growth inhibitory concentration for antifungal activity against Candida albicans; format: functional
BT-20 [16] = assay: In vitro anticlonogenic effect on human breast cancer cell line BT-20 at 10 nM concentration; format: functional
U373 MG [17] = assay: In vitro anticlonogenic effect on human brain tumor (glioblastoma) cell line U373 at 100 nM concentration; format: functional, U-373MG ATCC
BT-20 [18] = assay: In vitro anticlonogenic effect on human breast cancer cell line BT-20 at 1 nM concentration; format: functional
U373 MG [19] = assay: In vitro anticlonogenic effect on human brain tumor (glioblastoma) cell line U373 at 10 nM concentration; format: functional, U-373MG ATCC
BT-20 [20] = assay: In vitro anticlonogenic effect on human breast cancer cell line BT-20 at 100 nM concentration; format: functional
BT-20 [21] = assay: In vitro anticlonogenic effect on human breast cancer cell line BT-20 at 10 nM concentration,; format: functional

Row | SMILES | Mean no. colonies (NALM-6 [1]) | Mean no. colonies (NALM-6 [2]) | IC50 (NALM-6 [3]) [nM] | IC50 (BT-20 [7]) [nM] | Mean no. colonies (NALM-6 [12]) | IC50 (U373 MG [13]) [nM] | GI50 [14] [nM] | GI50 (Candida albicans [15]) [nM] | further results
1 | C#CC[C@H](/C=C/C(C)=C/[C@@H](O)[C@H]1C[C@@H](OC)C[C@@](O)(Cc2nc(/C=C(\C)[C@@H]3O[C@@H]4C/C=C/c5nc(co5)[C@H]5C[C@H](O)C[C@@H](C[C@H]6CC(=C)C[C@H](C/C=C\C(=O)O[C@@H]([C@H]4C)[C@H]3C)O6)O5)co2)O1)OC | 2116 10e4*cells | 0 10e4*cells | 4.8 | 12.6 | 293 10e4*cells | 27.4 |  |  | Mean no. colonies (BT-20 [4]): 0 10e4*cells; Mean no. colonies (BT-20 [5]): 1062 10e4*cells; Mean no. colonies (BT-20 [6]): 1540 10e4*cells; GI50 (Candida albicans [8]): 1.6 nM; GI50 [9]: 1.6 nM; Mean no. colonies (U373 MG [10]): 586 10e4*cells; Mean no. colonies (U373 MG [11]): 144 10e4*cells
2 | COC(=O)C[C@]1(O)C[C@H](OC)C[C@H]([C@H](O)/C=C(C)/C=C/[C@@H](C/C=C/Br)OC)O1 |  |  | > 2000 | > 2000 |  | > 2000 | 1.6 | 1.6 | 
3 | C=C1C[C@@H]2C[C@@H]3C[C@@H](O)C[C@@H](O3)c3coc(n3)/C=C/C[C@H]3O[C@@H](/C(C)=C/c4coc(C[C@]5(OC)C[C@H](OC)C[C@H]([C@H](O)/C=C(C)/C=C/[C@@H](C/C=C/Br)OC)O5)n4)[C@H](C)[C@@H](OC(=O)/C=C\C[C@@H](C1)O2)[C@H]3C | 1760 10e4*cells | 0 10e4*cells | 5.2 | 11.3 | 422 10e4*cells | 29.2 | 1.6 | 1.6 | Mean no. colonies (BT-20 [16]): 1430 10e4*cells; Mean no. colonies (U373 MG [17]): 0 10e4*cells; Mean no. colonies (BT-20 [18]): 1824 10e4*cells; Mean no. colonies (U373 MG [19]): 578 10e4*cells; Mean no. colonies (BT-20 [20]): 0 10e4*cells
4 | C=C1C[C@@H]2C[C@@H]3C[C@@H](O)C[C@@H](O3)c3coc(n3)/C=C/C[C@H]3O[C@@H](/C(C)=C/c4coc(C[C@]5(O)C[C@H](OC)C[C@H]([C@H](O)/C=C(C)/C=C/[C@@H](C/C=C/Br)OC)O5)n4)[C@H](C)[C@@H](OC(=O)/C=C\C[C@@H](C1)O2)[C@H]3C | 270 10e4*cells | 0 10e4*cells | 1.7 | 3.4 | 0 10e4*cells | 6.7 | 1.6 | 1.6 | inhibition at 0.1 µM (NALM-6 [2]): > 99.9%; Mean no. colonies (BT-20 [16]): 0 10e4*cells; Mean no. colonies (U373 MG [17]): 0 10e4*cells; inhibition at 0.1 µM (U373 MG [17]): > 99.9%; Mean no. colonies (BT-20 [18]): 1070 10e4*cells; inhibition at 0.01 µM (NALM-6 [12]): > 99.9%; inhibition at 0.01 µM (BT-20 [21]): > 99.9%; Mean no. colonies (U373 MG [19]): 378 10e4*cells; Mean no. colonies (BT-20 [20]): 0 10e4*cells; inhibition at 0.1 µM (BT-20 [20]): > 99.9%
5 | C=C1C[C@@H]2C[C@@H]3C[C@@H](O)C[C@@H](O3)c3coc(n3)/C=C/C[C@H]3O[C@@H](/C(C)=C/[C@H](CO)NC(=O)C[C@]4(O)C[C@H](OC)C[C@H]([C@H](O)/C=C(C)/C=C/[C@@H](C/C=C/Br)OC)O4)[C@H](C)[C@@H](OC(=O)/C=C\C[C@@H](C1)O2)[C@H]3C |  |  | > 2000 | > 2000 |  | > 2000 | 1.6 | 1.6 | 
6 | COC(=O)/C=C/C[C@H]1O[C@@H](/C(C)=C/c2coc(C[C@]3(O)C[C@H](OC)C[C@H]([C@H](O)/C=C(C)/C=C/[C@@H](C/C=C/Br)OC)O3)n2)[C@H](C)[C@@H](OC(C)=O)[C@H]1C |  |  | > 2000 | > 2000 |  | > 2000 | 1.6 | 1.6 | 
7 | C=C1C[C@@H]2C[C@@H]3C[C@@H](O)C[C@@H](O3)c3coc(n3)/C=C/C[C@H]3O[C@@H](/C(C)=C/c4coc(C[C@]5(O)C[C@H](OC)C[C@H](CO)O5)n4)[C@H](C)[C@@H](OC(=O)/C=C\C[C@@H](C1)O2)[C@H]3C |  |  | > 2000 | > 2000 |  | > 2000 | 1.6 | 1.6 | 
